Source: patent US3931244A, “Thioureas” (John Wyeth & Brother Limited, priority 1973, dated 1976)

Test system: appetite
Assay: Anorectic test: length of spaghetti eaten by starved mice during a two hour test period
Format: in vivo
Details: 100 mg/kg per os, dosed one hour before test, overnight-starved male mice, (mean length eaten by control - test)/control × 100
Experimental: The compounds of the invention may be tested for anorectic properties by the following procedure:
Groups of 8 or 10 male mice weighing 22-24 grams are starved overnight, although access to water is not restricted. The animals are dosed with the test drug or vehicle alone (control) one hour before they are placed individually into glass jars. The jars (100 mm diameter × 80 mm high) have lids fitted with a glass tube to accommodate a stick of spaghetti of approximate length of 450 mm. The glass tube is arranged such that only 5 mm of spaghetti is exposed for eating by the mouse. The length of spaghetti eaten during a two hour test period is indicative of the appetite of the animal.
When tested by this procedure at a dose of 100 mg/kg per os the following results were obtained: […]

Structure (SMILES) | % Inhibition of appetite [%]
C[C@@H](Cc1ccccc1)NC(=S)NC(=O)c1ccccc1 [Example 1, N-Benzoyl-N'-(1-methyl-2-phenyl)ethylthiourea] | 90
O=C(NC(=S)NCCc1ccccc1)c1ccccc1 [Example 2, N-Benzoyl-N'-phenthylthiourea] | 49
COc1ccc(C(=O)NC(=S)N[C@@H](C)Cc2ccccc2)cc1 [Example 3, N-(4-Methoxybenzoyl)-N'-(1-methyl-2-phenyl)ethylthiourea] | 52
C[C@@H](Cc1ccccc1)NC(=S)NC(=O)c1cccc(C(F)(F)F)c1 [Example 4, N-(3-Trifluoromethylbenzoyl)-N'-(1-methyl-2-phenyl)-ethylthiourea] | 49
C[C@@H](Cc1ccccc1)NC(=S)NC(=O)c1ccc(Cl)cc1 [Example 5, N-(4-Chlorobenzoyl)-N'-(1-methyl-2-phenyl)ethylthiourea] | 41
C[C@@H](Cc1ccccc1)NC(=S)NC(=O)c1ccco1 [Example 6] | 40
Cc1cccc(C(=O)NC(=S)N[C@@H](C)Cc2ccccc2)c1 [Example 7, N-(3-Toluoyl)-N'-(1-methyl-2-phenyl)ethylthiourea] | 53
